Experimental data taken from patent US9179674B2, “Macrocyclic picolinamide compounds with fungicidal activity” (DOW AGROSCIENCES LLC, priority 2013, dated 2015).

What was measured:
Format in all cases: in vivo
Uncinula necator = assay: Grape Powdery Mildew fungicidal activity (UNCINE); details: Erysiphe necator, 24 h, 1 Day Protectant, read-out: Disease Control UNCINE 1DP
Method: Technical grades of materials were dissolved in acetone, which were then mixed with nine volumes of water containing 110 ppm Triton X-100. The fungicide solutions were applied onto wheat seedlings using an automated booth sprayer to run-off. All sprayed plants were allowed to air dry prior to further handling. All fungicides were evaluated using the aforementioned method for their activity vs. all target diseases. Wheat leaf blotch and brown rust activity were also evaluated using track spray applications, in which case the fungicides were formulated as EC formulations, containing 0.1% Trycol 5941 in the spray solutions. Wheat plants (variety Yuma) were grown from seed in a greenhouse in 50% mineral soil/50% soil-less Metro mix until the first leaf was fully emerged, with 7-10 seedlings per pot. These plants were inoculated with an aqueous spore suspension of Septoria tritici either prior to or after fungicide treatments. After inoculation the plants were kept in 100% relative humidity (one day in a dark dew chamber followed by two to three days in a lighted dew chamber at 20° C.) to permit spores to germinate and infect the leaf. The plants were then transferred to a greenhouse set at 20° C. for disease to develop. When disease symptoms were fully expressed on the 1st leaves of untreated plants, infection levels were assessed on a scale of 0 to 100 percent disease severity. Percent disease control was calculated using the ratio of disease severity on treated plants relative to untreated plants. Evaluation of Fungicidal Activity: Grape Powdery Mildew (Uncinula necator; Bayer code […]) Grape seedlings (variety Carignane) were grown in soil-less Metro mix, with one plant per pot, and used in the test when approximately one month old. Plants were inoculated 24 hr after fungicide treatment by shaking spores from infected leaves over test plants. Plants were maintained in a greenhouse set at 20° C. until disease was fully developed. Fungicide formulation, application and disease assessment on the sprayed leaves followed the procedures as described in the Example A.

[1] = tested on: Glomerella lagenarium; Anamorph: Colletotrichum lagenarium; assay: Cucumber Anthracnose fungicidal activity (COLLLA); details: Colletotrichum orbiculare, 24 h, 1 Day Protectant, read-out: Disease Control COLLLA 1DP
Method: Technical grades of materials were dissolved in acetone, which were then mixed with nine volumes of water containing 110 ppm Triton X-100. The fungicide solutions were applied onto wheat seedlings using an automated booth sprayer to run-off. All sprayed plants were allowed to air dry prior to further handling. All fungicides were evaluated using the aforementioned method for their activity vs. all target diseases. Wheat leaf blotch and brown rust activity were also evaluated using track spray applications, in which case the fungicides were formulated as EC formulations, containing 0.1% Trycol 5941 in the spray solutions. Wheat plants (variety Yuma) were grown from seed in a greenhouse in 50% mineral soil/50% soil-less Metro mix until the first leaf was fully emerged, with 7-10 seedlings per pot. These plants were inoculated with an aqueous spore suspension of Septoria tritici either prior to or after fungicide treatments. After inoculation the plants were kept in 100% relative humidity (one day in a dark dew chamber followed by two to three days in a lighted dew chamber at 20° C.) to permit spores to germinate and infect the leaf. The plants were then transferred to a greenhouse set at 20° C. for disease to develop. When disease symptoms were fully expressed on the 1st leaves of untreated plants, infection levels were assessed on a scale of 0 to 100 percent disease severity. Percent disease control was calculated using the ratio of disease severity on treated plants relative to untreated plants. Evaluation of Fungicidal Activity: Cucumber Anthracnose (Glomerella lagenarium; Anamorph: Colletotrichum lagenarium; Bayer Code COLLLA) Cucumber seedlings (variety Bush Pickle) were propagated in soil-less Metro mix, with each pot having one plant, and used in the test when 12 to 14 days old. Test plants were inoculated with an aqueous spore suspension of Colletotrichum lagenarium 24 hr after fungicide treatments. After inoculation the plants were kept in a dew room at 22° C. with 100% relative humidity for 48 hr to permit spores to germinate and infect the leaf. The plants were then transferred to a growth room set at 22° C. for disease to develop. Fungicide formulation, application and disease assessment on the sprayed leaves followed the procedures as described in the Example A.

[2] = tested on: Blumeria graminis f.sp. hordei; assay: Barley Powdery Mildew fungicidal activity (ERYSGH); details: 24 h, 1 Day Protectant, read-out: Disease Control ERYSGH 1DP
Method: Technical grades of materials were dissolved in acetone, which were then mixed with nine volumes of water containing 110 ppm Triton X-100. The fungicide solutions were applied onto wheat seedlings using an automated booth sprayer to run-off. All sprayed plants were allowed to air dry prior to further handling. All fungicides were evaluated using the aforementioned method for their activity vs. all target diseases. Wheat leaf blotch and brown rust activity were also evaluated using track spray applications, in which case the fungicides were formulated as EC formulations, containing 0.1% Trycol 5941 in the spray solutions. Wheat plants (variety Yuma) were grown from seed in a greenhouse in 50% mineral soil/50% soil-less Metro mix until the first leaf was fully emerged, with 7-10 seedlings per pot. These plants were inoculated with an aqueous spore suspension of Septoria tritici either prior to or after fungicide treatments. After inoculation the plants were kept in 100% relative humidity (one day in a dark dew chamber followed by two to three days in a lighted dew chamber at 20° C.) to permit spores to germinate and infect the leaf. The plants were then transferred to a greenhouse set at 20° C. for disease to develop. When disease symptoms were fully expressed on the 1st leaves of untreated plants, infection levels were assessed on a scale of 0 to 100 percent disease severity. Percent disease control was calculated using the ratio of disease severity on treated plants relative to untreated plants. Evaluation of Fungicidal Activity: Barley Powdery Mildew (Blumeria graminis fsp. hordei; Synonym: Erysiphe graminis fsp. hordei; Bayer Code […]) Barley seedlings (variety Harrington) were propagated in soil-less Metro mix, with each pot having 8 to 12 plants, and used in the test when first leaf was fully emerged. Test plants were inoculated by dusting with infected stock plants 24 hr after fungicide treatments. After inoculation the plants were kept in a greenhouse set at 20° C. for disease to develop. Fungicide formulation, application and disease assessment on the sprayed leaves followed the procedures as described in the Example A.

Compound | pest or weed control at 100 ppm (Uncinula necator) | pest or weed control at 100 ppm [1] | pest or weed control at 100 ppm [2]
COc1ccnc(C(=O)N[C@H]2COC[C@H](Cc3ccc(F)cc3)[C@@H](OCC(C)C)[C@H](C)OC2=O)c1OC(C)=O [Compound F60] | 80 to 100% | – | –
COc1ccnc(C(=O)N[C@H]2COC[C@H](Cc3ccc(Cl)cc3Cl)[C@@H](OC(=O)C(C)C)[C@H](C)OC2=O)c1OC(C)=O [Compound F73] | – | 80 to 100% | –
COc1ccnc(C(=O)N[C@H]2COC[C@H](Cc3ccc(C)cc3)[C@@H](OCC(C)C)[C@H](C)OC2=O)c1OC(C)=O [Compound F80] | 0 to 80% | 80 to 100% | 80 to 100%
COc1ccnc(C(=O)N[C@H]2COC[C@H](CCc3ccccc3)[C@@H](OCC(C)C)[C@H](C)OC2=O)c1OCOC(C)=O [Compound F82] | – | 80 to 100% | –
COc1ccnc(C(=O)N[C@H]2COC[C@H](Cc3cccc4ccccc34)[C@@H](OC(=O)C(C)C)[C@H](C)OC2=O)c1OCOC(C)=O [Compound F83, (3S,6S,7R,8S)-3-(3-(acetoxymethoxy)-4-methoxypicolin-amido)-6-methyl-8-(naphthalen-1-ylmethyl)-4-oxo-1,5-dioxonan-7-yl isobutyrate] | 0 to 80% | 80 to 100% | 80 to 100%
COc1ccnc(C(=O)N[C@H]2COC[C@H](Cc3ccc(F)cc3)[C@@H](OCC(C)C)[C@H](C)OC2=O)c1OCOC(C)=O [Compound F96] | 80 to 100% | 80 to 100% | 80 to 100%
COc1ccnc(C(=O)N[C@H]2COC[C@H](CC(F)(F)F)[C@@H](OC3CCCC3)[C@H](C)OC2=O)c1OCOC(C)=O [Compound F105] | – | 80 to 100% | –
COc1ccnc(C(=O)N[C@H]2COC[C@H](CCC(C)C)[C@@H](OCCCC(F)(F)F)[C@H](C)OC2=O)c1OCOC(C)=O [Compound F107] | 0 to 80% | – | 0 to 80%
COc1ccnc(C(=O)N[C@H]2COC[C@H](CCC(C)C)[C@@H](OC(=O)C3CC3)[C@H](C)OC2=O)c1OCOC(C)=O [Compound F108] | 80 to 100% | – | 80 to 100%
COc1ccnc(C(=O)N[C@H]2COC[C@H](Cc3ccc(Cl)cc3Cl)[C@@H](OC(=O)C(C)C)[C@H](C)OC2=O)c1OCOC(C)=O [Compound F110] | – | 80 to 100% | –
COc1ccnc(C(=O)N[C@H]2COC[C@H](CC3CCCC3)[C@@H](OC(=O)C(C)C)[C@H](C)OC2=O)c1OCOC(C)=O [Compound F114] | 80 to 100% | 80 to 100% | 80 to 100%
COc1ccnc(C(=O)N[C@H]2COC[C@H](Cc3ccc(C)cc3)[C@@H](OCC(C)C)[C@H](C)OC2=O)c1OCOC(C)=O [Compound F117] | 80 to 100% | 80 to 100% | 80 to 100%
CCCCCO[C@@H]1[C@@H](Cc2ccc(Cl)cc2Cl)COC[C@H](NC(=O)c2nccc(OC)c2OCOC(=O)COCC)C(=O)O[C@H]1C [Compound F122] | 80 to 100% | 80 to 100% | 80 to 100%
CCCCCO[C@@H]1[C@@H](Cc2ccc(Cl)cc2Cl)COC[C@H](NC(=O)c2nccc(OC)c2OC(=O)CCOC)C(=O)O[C@H]1C [Compound F123] | 80 to 100% | 80 to 100% | 80 to 100%
